34 molecules from US9174992B2, “Heterobicyclic compounds” (Amgen Inc., priority 2012, dated 2015) can be followed below.

Several values for one entry are separate records, joined by “and”; a condition that tells them apart may be missing. Identical values can stand only once.

In this assay the target is PDE10A (UniProt Q9Y233). Kind of assay: PDE10 enzyme inhibition, IMAP TR-FRET assay (Example A, MPDE10A7 Enzyme Activity and Inhibition). Type of assay: biochemical. Particulars: approximate IC50 value, Table 10. The protocol:
Enzyme Activity. An IMAP TR-FRET assay was used to analyze the enzyme activity (Molecular Devices Corp., Sunnyvale Calif.). 10 μL of serial diluted PDE10A (BPS Bioscience, San Diego, Calif.) or tissue homogenate was incubated with equal volumes of diluted fluorescein labeled cAMP or cGMP for 90 min in 384-well Polypropylene assay plates (Greiner, Monroe, N.C.) at room temperature. After incubation, the reaction was stopped by adding 55 μL of diluted binding reagents and was incubated for 4 hours to overnight at room temperature. The plates were read on an Envision (Perkin Elmer, Waltham, Mass.) for time resolved fluorescence resonance energy transfer. The data were analyzed with Genedata Screener® (Lexington, Mass.).
Enzyme Inhibition. To check the inhibition profile, 0.2 μL of serial diluted compounds were incubated with 10 μL of diluted PDE10 enzyme (BPS Bioscience, San Diego, Calif.) or tissue homogenate in a 384-well Polypropylene assay plate (Greiner, Monroe, N.C.) for 60 min at room temperature. After incubation, 10 μL of diluted fluorescein labeled cAMP or cGMP substrate were added and incubated for 90 min at room temperature. The reaction was stopped by adding 55 μL of diluted binding reagents and plates were read on an Envision (Perkin Elmer, Waltham, Mass.) for time resolved fluorescence resonance energy transfer. The data were analyzed with Genedata Screener® (Lexington, Mass.).
IC50 curves were generated from the raw data collected from the […] and fitted with a four-parameter logistic equation using in-house data analysis tool, Activity Base.
(In general: Time-resolved FRET reads energy transfer from a long-lived donor to a nearby acceptor.)

As usually defined, the IC50 is the point on the concentration scale where inhibition reaches its midpoint. A higher IC50 goes with weaker potency in that assay. In turn, `CC1(C)C(=O)N([C@H]2C[C@H](Nc3nc4ccccc4s3)C2)c2nccnc21` [Example 34, 5-(trans-3-(benzo[d]thiazol-2-ylamino)cyclobutyl)-7,7-dimethyl-5H-pyrrolo[2,3-b]pyrazin-6(7H)-one] had an IC50 of 0.107 nM. As to `O=C1N([C@H]2C[C@H](Nc3nc4ccccc4s3)C2)c2ncccc2C12CCC2` [Example 35, 1′-(trans-3-(benzo[d]thiazol-2-ylamino)cyclobutyl)spiro[cyclobutane-1,3′-pyrrolo[2,3-b]pyridin]-2′(1′H)-one], the midpoint of inhibition, the IC50, lay at 0.115 nM. Molecule `O=C1N([C@H]2C[C@H](Nc3nc4ccccc4s3)C2)c2ncccc2C12CCCC2` [Example 36, 1′-(Trans-3-(benzo[d]thiazol-2-ylamino)cyclobutyl)spiro[cyclopentane-1,3′-pyrrolo[2,3-b]pyridin]-2′(1′H)-one] gave a half-maximal inhibitory concentration (IC50) of 0.134 nM.

Consider `O=C1N([C@H]2C[C@H](Nc3nc4ccccc4s3)C2)c2ncccc2C12CCOCC2` [Example 37, 1′-(Trans-3-(benzo[d]thiazol-2-ylamino)cyclobutyl)-2,3,5,6-tetrahydrospiro[pyran-4,3′-pyrrolo[2,3-b]pyridin]-2′(1′H)-one], for which the IC50 came out at 0.14 nM. On to `Cc1ccc(N[C@H]2C[C@H](N3C(=O)C(C)(C)c4cccnc43)C2)nc1` [Example 38, 3,3-Dimethyl-1-(trans-3-(5-methylpyridin-2-yl)amino)cyclobutyl-1H-pyrrolo[2,3-b]pyridin-2(3H)-one], for which the 50% inhibitory concentration (IC50) came out at 0.166 nM. The same measure for `COc1ccc(N[C@H]2C[C@H](N3C(=O)C(C)(C)c4cccnc43)C2)nc1` [Example 39]: 0.212 nM; for `CC1(C)C(=O)N([C@H]2C[C@H](Nc3ccc(Br)cn3)C2)c2ncccc21` [Example 40, 1-(Trans-3-((5-bromopyridin-2-yl)amino)cyclobutyl)-3,3-dimethyl-1H-pyrrolo[2,3-b]pyridin-2(3H)-one]: 0.263 nM. In turn, `CC1(C)C(=O)N([C@H]2C[C@H](Nc3ccc(C4CC4)cn3)C2)c2ncccc21` [Example 41, 1-(Trans-3-((5-cyclopropylpyridin-2yl)amino)cyclobutyl)-3,3-dimethyl-1H-pyrrolo[2,3-b]pyridin-2(3H)-one] returned an IC50 of 0.329 nM. With `CC1(C)C(=O)N([C@H]2C[C@H](Nc3ccc(Cl)cn3)C2)c2ncccc21` [Example 42, 1-(Trans-3-((5-chloropyridin-2-yl)amino)cyclobutyl)-3,3-dimethyl-1H-pyrrolo[2,3-b]pyridin-2(3H)-one], the IC50 is 0.856 nM. In the case of `CC(=O)c1ccc(N[C@H]2C[C@H](N3C(=O)C(C)(C)c4cccnc43)C2)nc1` [Example 43, 1-(trans-3-((5-acetylpyridin-2-yl)amino)cyclobutyl)-3,3-dimethyl-1H-pyrrolo[2,3-b]pyridin-2(3H)-one] it was 1.57 nM. Molecule `O=C1Cc2cccnc2N1[C@H]1C[C@H](Nc2nc3ccccc3s2)C1` [Example 44, 1-(trans-3-(benzo[d]thiazol-2-ylamino)cyclobutyl)-1H-pyrrolo[2,3-b]pyridin-2(3H)-one] yielded an IC50 of 2.44 nM. In the case of `COc1cccnc1N[C@H]1C[C@H](N2C(=O)C(C)(C)c3cccnc32)C1` [Example 45, 1-(Trans-3-((3-methoxypyridin-2-yl)amino)cyclobutyl)-3,3-dimethyl-1H-pyrrolo[2,3-b]pyridin-2(3H)-one] it was 2.52 nM; in that of `CC1(C)C(=O)N([C@H]2C[C@H](Nc3ccc(C(F)(F)F)cn3)C2)c2ncccc21` [Example 46, 1-(Trans-3-((5-trifuoromethylpyridin-2-yl)amino)cyclobutyl)-3,3-dimethyl-1H-pyrrolo[2,3-b]pyridin-2(3H)-one], 2.53 nM. The molecule `CCc1cnc(N[C@H]2C[C@H](N3C(=O)C(C)(C)c4cccnc43)C2)nc1` [Example 47, 1-(trans-3-((5-ethylpyrimidin-2-yl)amino)cyclobutyl)-3,3-dimethyl-1H-pyrrolo[2,3-b]pyridin-2(3H)-one] registered an IC50 of 2.64 nM.

`Cc1cnc(N[C@H]2C[C@H](N3C(=O)C(C)(C)c4cccnc43)C2)nc1` [Example 48, 1-(trans-3-((5-methylpyrimidin-2-yl)amino)cyclobutyl)-3,3-dimethyl-1H-pyrrolo[2,3-b]pyridin-2(3H)-one] registered a 50% inhibitory concentration (IC50) of 3.46 nM. On to `CC1(C)C(=O)N([C@H]2C[C@H](Nc3ccc(Cl)cn3)C2)c2nccnc21` [Example 49], for which the IC50 turned out to be 3.88 nM.

Consider `COc1ccc(N(c2ccc(OC)cn2)[C@H]2C[C@H](N3C(=O)C(C)(C)c4cccnc43)C2)nc1` [Example 50, 1-(trans-3-(BIS(5-methoxypyridin-2-yl)amino)cyclobutyl)-3,3-dimethyl-1H-pyrrolo[2,3-b]pyridin-2(3H)-one], for which it took 4.63 nM to reach half-maximal inhibition (IC50). With `Cc1ccnc(N[C@H]2C[C@H](N3C(=O)C(C)(C)c4cccnc43)C2)c1` [Example 51, 1-(Trans-3-((4-methylpyridin-2-yl)amino)cyclobutyl)-3,3-dimethyl-1H-pyrrolo[2,3-b]pyridin-2(3H)-one], the IC50 was found to be 4.85 nM. The molecule `CC1(C)C(=O)N([C@H]2C[C@H](Nc3ncccc3F)C2)c2ncccc21` [Example 52, 1-(Trans-3-((3-fluoropyridin-2-yl)amino)cyclobutyl)-3,3-dimethyl-1H-pyrrolo[2,3-b]pyridin-2(3H)-one] showed an IC50 of 5.69 nM. In the case of `Cc1cccnc1N[C@H]1C[C@H](N2C(=O)C(C)(C)c3cccnc32)C1` [Example 53, 1-(Trans-3-((3-methylpyridin-2-yl)amino)cyclobutyl)-3,3-dimethyl-1H-pyrrolo[2,3-b]pyridin-2(3H)-one], half-maximal inhibition (IC50) was put at 5.7 nM.

Molecule `CC1(C)C(=O)N([C@H]2C[C@H](Nc3ccc(F)cn3)C2)c2ncccc21` [Example 54, 1-(Trans-3-((5-fluoropyridin-2-yl)amino)cyclobutyl)-3,3-dimethyl-1H-pyrrolo[2,3-b]pyridin-2(3H)-one] returned an IC50 of 6.47 nM. Molecule `CC1(C)C(=O)N([C@H]2C[C@H](Nc3nccs3)C2)c2ncccc21` [Example 55, 3,3-Dimethyl-1-(trans-3-(thiazol-2-ylamino)cyclobutyl)-1H-pyrrolo[2,3-b]pyridine-2(3H)-one] registered an IC50 of 7.43 nM. `CC(=O)Nc1ccc(N[C@H]2C[C@H](N3C(=O)C(C)(C)c4cccnc43)C2)nc1` [Example 56, N-(6-((Trans-3-(3,3-dimethyl-2-oxo-2,3-dihydro-1H-pyrrolo[2,3-b]pyridine-1-yl)cyclobutyl)amino)pyridine-3-yl)acetamide] registered an IC50 of 8.42 nM. Molecule `CC1(C)C(=O)N([C@H]2C[C@H](Nc3ncccc3Cl)C2)c2ncccc21` [Example 57] displayed an IC50 of 11 nM. `COc1ccnc(N[C@H]2C[C@H](N3C(=O)C(C)(C)c4cccnc43)C2)n1` [Example 58, 1-(trans-3-((4-methoxypyrimidin-2-yl)amino)cyclobutyl)-3,3-dimethyl-1H-pyrrolo[2,3-b]pyridin-2(3H)-one]: the midpoint of inhibition, the IC50, lay at 13 nM. `CC1(C)C(=O)N([C@H]2C[C@H](Nc3ccc(C#N)cn3)C2)c2ncccc21` [Example 59, 1-(Trans-3-((5-cyanopyridin-2-yl)amino)cyclobutyl)-3,3-dimethyl-1H-pyrrolo[2,3-b]pyridin-2(3H)-one]: the IC50 came to 15.9 nM. The molecule `CC1(C)C(=O)N([C@H]2C[C@H](Nc3ncc(Br)cn3)C2)c2ncccc21` [Example 60, 1-(Trans-3-((5-bromopyrimidin-2-yl)amino)cyclobutyl)-3,3-dimethyl-1H-pyrrolo[2,3-b]pyridin-2(3H)-one] yielded an IC50 of 19.3 nM. `CC1(C)C(=O)N([C@H]2C[C@H](Nc3ncc(Cl)cn3)C2)c2ncccc21` [Example 61, 1-(trans-3-((5-chloropyrimidin-2-yl)amino)cyclobutyl)-3,3-dimethyl-1H-pyrrolo[2,3-b]pyridin-2(3H)-one] showed an IC50 of 30.4 nM. `Cc1ccnc(N[C@H]2C[C@H](N3C(=O)C(C)(C)c4cccnc43)C2)n1` [Example 63, 1-(trans-3-((4-methylpyrimidin-2-yl)amino)cyclobutyl)-3,3-dimethyl-1H-pyrrolo[2,3-b]pyridin-2(3H)-one] displayed an IC50 of 38.6 nM. Molecule `CC1(C)C(=O)N([C@H]2C[C@H](Nc3nccc(Cl)n3)C2)c2ncccc21` [Example 64, 1-(trans-3-((4-chloropyrimidin-2-yl)amino)cyclobutyl)-3,3-dimethyl-1H-pyrrolo[2,3-b]pyridin-2(3H)-one] showed an IC50 of 43.3 nM.

On to `CC1(C)C(=O)N([C@H]2C[C@H](Nc3cnccn3)C2)c2ncccc21` [Example 65, 3,3-Dimethyl-1-(trans-3-(pyrazin-2-ylamino)cyclobutyl)-1H-pyrrolo[2,3-b]pyridine-2(3H)-one], for which the IC50 was 44.8 nM. Turning to `CC1(C)C(=O)N([C@H]2C[C@H](Nc3cccc(Cl)n3)C2)c2ncccc21` [Example 66, 1-(trans-3-((6-chloropyridin-2-yl)amino)cyclobutyl)-3,3-dimethyl-1H-pyrrolo[2,3-b]pyridin-2(3H)-one], the IC50 came to 51.1 nM. For `CC1(C)C(=O)N([C@H]2C[C@H](Nc3nccc(C(F)(F)F)n3)C2)c2ncccc21` [Example 67], the IC50 is 35.6 nM and 59 nM.

In turn, `CC1(C)C(=O)N([C@H]2C[C@H](Nc3cccnn3)C2)c2ncccc21` [Example 68, 3,3-Dimethyl-1-(trans-3-(pyridazin-3-ylamino)cyclobutyl)-1H-pyrrolo[2,3-b]pyridine-2(3H)-one] came in with an IC50 of 158 nM.
